Laboratory results reported in patent US11576914B2, “Drug for treating or preventing disorder caused by TGF-β signaling, and application thereof” (THE DOSHISHA, priority 2017, dated 2023).
“Also recorded” adds a separate entry of the source.

Key:
[1] = test system: cleaved caspase-3 and PARP; assay: Western blot of caspase 3 and PARP in iFECD stimulated with TGF-β2; assay type: cell-based, human; details: 0.1 μM; for cleaved caspase-3 and PARP expression: 100 ng/ml TGF-β2, 24 hours; for caspase activity: TGF-β2
Method: (§1) The medium was removed from the culture dish of cultured disease model cells, and the disease model cells were supplemented with 1×PBS (−) that was preheated to 37° C., followed by washing. This operation was repeated twice. The cells were supplemented with 1×PBS (−) again and incubated for 5 minutes at 37° C. (5% CO2). After the PBS (−) was removed, the cells were supplemented with 0.05% Trypsin-EDTA (nacalai tesque, 32778-34) and incubated for 5 minutes at 37° C. (5% CO2). The cells were then suspended in a medium, and collected by centrifugation at 1500 rpm for 3 minutes. Medium: DMEM (nacalai tesque, 08456-36)+10% FBS (Biowest, S1820-500)+1% P/S (nacalai tesque, 26252-94).
The Fuchs' endothelial corneal dystrophy patient-derived immortalized corneal endothelial cells were seeded in a 6-well plate at a rate of 1.5×10^5 cells per well and cultured at 37° C. (5% CO2) for 48 hours. DMEM+10% FBS+1% P/S was used as the medium. After 48 hours, the medium was removed, and SB203580 (Cayman, 13067), PH-797804 (Selleck Chemicals, S2726), VX-702 (Selleck Chemicals, 56005) and AKP-001 were added to DMEM+2% FBS+1% P/S so that all the final concentration was 0.1 μM, followed by culturing as 24-hour pretreatment.
After 24 hours, the medium was removed, and SB203580 (Cayman, 13067), PH-797804 (Selleck Chemicals, S2726), VX-702 (Selleck Chemicals, 56005) and AKP-001, together with 100 ng/ml recombinant human TGF-β2 (R & D systems, RND302-B2-002), were added to DMEM+2% FBS+1% P/S so that all the final concentration was 0.1 μM, followed by culturing for 24 hours. After 24 hours, the protein was subjected to Western blotting according to the following procedure to evaluate the effect on apoptosis.
The medium was collected on ice to collect free and dead cells as well. The solution obtained from washing the cells twice with 1×PBS (−) was also collected, followed by centrifugation of 800 g at 4° C. for 5 minutes. The supernatant was discarded to obtain precipitates. The washed cells were supplemented with a protein extraction buffer (RIPA; 50 mM Tris-HCl (pH 7.4), 150 mM NaCl, 1 mM EDTA, 0.1% SDS, 0.5% DOC, 1% NP-40) on ice to extract proteins. The precipitates from centrifuging the free and dead cells were also subsequently suspended together for extraction. The collected solution was pulverized three times for 30 seconds in cold water with a sonication device (BIORUPTOR, TOSHO DENKI) and centrifuged for 10 min at 4° C. at 15000 rpm to collect the supernatant of proteins.
Eight μg of the extracted protein was separated by SDS-PAGE and transferred onto a nitrocellulose membrane. A rabbit anti-Caspase 3 antibody (Cell Signaling, 9662), rabbit anti-PARP antibody (Cell Signaling, 9542), and mouse anti-GAPDH antibody (MBL, M171-3) were used as the primary antibodies. A peroxidase-labeled anti-rabbit antibody and anti-mouse antibody (GE Healthcare Biosciences, NA931V, NA934V) were used as the secondary antibodies. For the primary antibodies, the rabbit anti-PARP antibody was diluted 1000-fold, the rabbit anti-Caspase 3 antibody was diluted 1000-fold, and the mouse anti-GAPDH antibody was diluted 3000-fold. Further, the secondary antibody was diluted 5000-fold. Chemi Lumi ONE Ultra (Nacalai Tesque, 11644-40) was used for detection. The detected band strength was analyzed with a lumino image analyzer LAS-4000 mini (Fuji Film) and ImageQuant™ software (GE Healthcare).

[2] = test system: Fuchs' endothelial corneal dystrophy patient-derived immortalized corneal endothelial cells; assay: Cell damage inhibitory effect on iFECD stimulated with TGF-β2 (phase contrast microscope); assay type: cell-based, human; details: for disorder in the corneal endothelial cells: 1 μM and 3 μM, iFECD, pretreatment, TGF-β2 stimulation; for cell damage inhibitory effect for the corneal endothelial cells: at sub-μM
Method: as §1, with “in which Fuchs' endothelial corneal dystrophy patient-derived immortalized corneal endothelial cells (hereinafter, referred to as” for “of cultured”, “cells) were being cultured,” for “cells,”, “the” for “the disease model”, “and were washed.” for “followed by washing.”, “minutes.” for “minutes. Medium:”, “26252-94) was used as the medium. The disease model cells were seeded in a 6-well plate at a rate of 1.5×10^5 cells per well and cultured at 37° C. (5% CO2) for 48 hours. DMEM+10% FBS+1% P/S was used as the medium.” for “26252-94).”
After 48 hours, the medium was removed, and AKP-001, SB203580 (Cayman, 13067), PH-797804 (Selleck Chemicals, S2726) and VX-702 (Selleck Chemicals, 56005) were added to DMEM+2% FBS+1% P/S so that the final concentration was 0.01, 0.03, 0.1, 0.3, 1, 3, 10 and 30 μM, followed by culturing as 24-hour pretreatment. After 24 hours, the medium was removed, and AKP-001, 5B203580 (Cayman, 13067), PH-797804 (Selleck Chemicals, S2726), or VX-702 (Selleck Chemicals, S6005), together with 100 ng/ml Recombinant Human TGF-β2 (R&D systems, RND302-B2-002), were added to DMEM+2% FBS+1% P/S so that the final concentration was 0.01 μM, 0.03 μM, 0.1 μM, 0.3 μM, 1 μM, 3 μM, 10 μM, and 30 μM, followed by culturing for 24 hours. After 24 hours, cell damage was evaluated by observation with a phase contrast microscope. As a control, immortalized corneal endothelial cells that were not stimulated with TGF-β were used.

corneal endothelium = assay: Histological analysis of the corneal endothelium after instillation; assay type: in vivo; details: 10 μM into the anterior chamber, after 24 hours, positive control
Excerpt: Rabbits were euthanized, and then their eyes were removed and histologically analyzed. Expression of markers related to corneal endothelial functions was confirmed by immunostaining. The sclerocornea fragments were fixed with 0.5% paraformaldehyde and then blocked with 1% bovine serum albumin. As primary antibodies, ZO-1 antibody (Life Technologies) and N-cadherin antibody (BD Biosciences), which are indicators of the barrier function of corneal endothelial cells, and Na^+/K^+-ATPase antibody (MILLIPORE), which is an indicator of pump functions, were added, followed by standing at 4° C. overnight. […] Further, nuclear staining was performed using DAPI (Dojindo). To observe the cell morphology, actin was stained using Phalloidin (Life Technologies). The stained sclerocornea fragments were mounted in slide glasses and observed using a confocal fluorescence microscope (TCS SPE, Leica).
In addition, rabbits were euthanized, and then their eyes were removed. To assess cell death, the sclerocornea fragments were stained with Annexin V (Zymed Laboratories) and PI (Zymed Laboratories), fixed with 0.5% paraformaldehyde, and nuclear stained with DAPI (Dojindo). The stained sclerocornea fragments were mounted in slide glass and observed using a confocal fluorescence microscope (TCS SPE, Leica). Staurosporine (10 μM, Merck Millipore) was administered into the anterior chamber of a rabbit eyeball, and after 24 hours, it was used as a positive control.

| Compound | cleaved caspase-3 and PARP expression [1] | caspase activity [1] | disorder in the corneal endothelial cells [2] | cell damage inhibitory effect for the corneal endothelial cells [2] | Annexin V and PI staining (cell death) (corneal endothelium) |
| --- | --- | --- | --- | --- | --- |
| CNC(=O)c1ccc(C)c(-n2c(C)cc(OCc3ccc(F)cc3F)c(Br)c2=O)c1 [PH-797804] | confirmed similarly | not inhibited | effectively suppressed | not observed; also recorded: No inhibitory effects |  |
| NC(=O)c1ccc(N(C(N)=O)c2c(F)cccc2F)nc1-c1ccc(F)cc1F [VX-702] | confirmed similarly | not inhibited | effectively suppressed | not observed; also recorded: No inhibitory effects |  |
| CN[C@@H]1C[C@H]2O[C@@](C)([C@@H]1OC)n1c3ccccc3c3c4c(c5c6ccccc6n2c5c31)C(=O)NC4 [staurosporine, reference compound] |  |  |  |  | Staining with Annexin V or PI was observed |
